Data from patent publication US20250179094A1, “TGF-B INHIBITOR COMPOUND AND USE THEREOF” (Medinno Pharmaceutical Technology (Zhuhai) Co., Ltd., priority 2022, published 2025).

Biological target: human TGFβR1 (Homo sapiens (Human), UniProt P36897)
Assay: TGFβR1 kinase activity assay (ADP-Glo method)
Type: biochemical
Conditions: ATP 5 uM, TGFβR1tide substrate, 60 minutes at room temperature
Procedure: The principle of the activity assay was that TGFβR1 phosphorylates the substrate TGFβR1tide, consuming ATP in the process. […] The specific experimental steps were as follows. Compounds were diluted 4-fold in DMSO in a dilution plate, with the final starting concentration of the compounds being 10 μM, across 10 concentration gradient points. The compounds were then further diluted 50-fold into the kinase reaction buffer and incubated on a shaker for 20 minutes. Kinase was formulated with an enzyme reaction buffer. 2 μl kinase was added to each well of the reaction plate. 1 μl of the compound diluted in buffer was added to each well, and then the plate was sealed with a sealing membrane and centrifuged at 1000 g for 30 seconds, leaving it at room temperature for 10 minutes. Solutions of TGFβR1tide and ATP were prepared with the kinase reaction buffer, and 2 μL of the TGFβR1tide/ATP solution was added to the reaction plate. The plate was sealed with a sealing film and centrifuged at 1000 g for 30 seconds. It was allowed to react at room temperature for 60 minutes. Subsequently, 4 μL of ADP-Glo was transferred to a 384-well reaction plate and centrifuged at 1000 rpm/min for 1 minute, followed by incubation at 25° C. for 40 minutes. Then, 8 μL of Detection solution was transferred to the 384-well reaction plate and centrifuged at 1000 rpm/min for 1 minute, after which it was incubated at 25° C. for 40 minutes. The RLU (Relative Luminescence Unit) signal was read using a BMG microplate reader, which was used to characterize the degree of kinase activity.
3.1 The inhibition rate was calculated as follows: inhibition rate of compound (% inh)=100%−(compound−positive control)/(negative control−positive control)*100%.
The IC50 (half inhibition concentration) of a compound was obtained using the following non-linear fitting equation, wherein data analysis was performed using Graphpad 7.0 software.
X: log value of compound concentration; and Y: inhibition rate (% inhibition)

Sequence of human TGFβR1 (P36897 34-503): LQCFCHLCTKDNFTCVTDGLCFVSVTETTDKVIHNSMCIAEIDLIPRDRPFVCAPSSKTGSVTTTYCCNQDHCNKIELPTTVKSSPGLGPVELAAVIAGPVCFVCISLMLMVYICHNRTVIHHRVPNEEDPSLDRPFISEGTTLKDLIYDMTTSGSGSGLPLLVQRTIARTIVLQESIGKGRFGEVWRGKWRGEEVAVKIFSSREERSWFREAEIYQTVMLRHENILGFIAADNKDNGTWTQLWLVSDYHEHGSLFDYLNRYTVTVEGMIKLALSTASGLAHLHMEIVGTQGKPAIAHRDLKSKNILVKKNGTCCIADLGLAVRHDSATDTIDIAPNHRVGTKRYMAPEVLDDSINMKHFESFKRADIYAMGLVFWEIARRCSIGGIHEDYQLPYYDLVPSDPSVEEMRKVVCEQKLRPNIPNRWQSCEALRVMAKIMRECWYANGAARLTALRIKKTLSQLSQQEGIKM

SMILES | IC50
CNC(=O)N1Cc2nc(-c3cc(-c4c(-c5cccc(C)n5)nc5n4CCC5)ccn3)[nH]c2C1 [Compound 28] | 19 nM
Cc1cccc(-c2nc3n(c2-c2ccnc(-c4nc5c([nH]4)CN(C(=O)N(C)C)C5)c2)CCC3)n1 [Compound 29, N,N-Dimethyl-2-(4-(2-(6-methylpyridin-2-yl)-6,7-dihydro-5H-pyrrolo[1,2-a]imidazol-3-yl)pyridin-2-yl)-4,6-dihydropyrrolo[3,4-d]imidazol-5(1H)-carboxamide] | 0.18 nM
Cc1cccc(-c2nc3n(c2-c2ccnc(-c4nc5c([nH]4)CN(C(=O)C4CC(O)C4)C5)c2)CCC3)n1 (stereo not shown) [Compound 10, (3-Hydroxycyclobutyl)(2-(4-(2-(6-methylpyridin-2-yl)-6,7-dihydro-5H-pyrrolo[1,2-a]imidazol-3-yl)pyridin-2-yl)-4,6-dihydropyrrolo[3,4-d]imidazol-5(1H)-yl)ketone] | 2.2 nM
Cc1cccc(-c2nn(Cc3ccccc3F)cc2-c2ccnc(-c3nc4c([nH]3)CN(S(C)(=O)=O)C4)c2)n1 [Compound 51, 2-[4-(1-(2-Fluorobenzyl)-3-(6-methylpyridin-2-yl)-1H-pyrazol-4-yl)pyridin-2-yl]-5-(methylsulfonyl)-1,4,5,6-tetrahydropyrrolo[3,4-d]imidazole] | 5.6 nM
COC(=O)N1Cc2nc(-c3cc(-c4c(-c5cccc(C)n5)nc5n4CCC5)ccn3)[nH]c2C1 [Compound 30, Methyl 2-(4-(2-(6-Methylpyridin-2-yl)-6,7-dihydro-5H-pyrrolo[1,2-alimidazol-3-yl)pyridin-2-yl)-4,6-dihydropyrrolo[3,4-d]imidazol-5(1H)-carboxylate] | 5.7 nM
Cc1cccc(-c2nn(Cc3ccncc3)cc2-c2ccnc(-c3nc4c([nH]3)CN(S(C)(=O)=O)C4)c2)n1 [Compound 55, 2-[4-(3-(6-Methylpyridin-2-yl)-1-(pyridin-4-ylmethyl)-1H-pyrazol-4-yl)pyridin-2-yl]-5-(methylsulfonyl)-1,4,5,6-tetrahydropyrrolo[3,4-d]imidazole] | 5 nM
Cc1cccc(-c2nc3n(c2-c2ccnc(-c4nc5c([nH]4)CN(C(=O)N4CCN(C)CC4)C5)c2)CCC3)n1 [Compound 4, (4-methylpiperazin-1-yl)(2-(4-(2-(6-methylpyridin-2-yl)-6,7-dihydro-5H-pyrrolo[1,2-a]imidazol-3-yl)pyridin-2-yl)-4,6-dihydropyrrolo[3,4-d]imidazol-5(1H)-yl)ketone] | 3.8 nM
Cc1cccc(-c2n[nH]cc2-c2ccnc(-c3nc4c([nH]3)CN(C(=O)N(C)C)C4)c2)n1 [Compound 59, N,N-Dimethyl-2-(4-(3-(6-methylpyridin-2-yl)-1H-pyrazol-4-yl)pyridin-2-yl)-4,6-dihydro pyrrolo[3,4-d]imidazol-5(1H)-carboxamide] | 9.2 nM
Cc1cccc(-c2nc3n(c2-c2ccnc(-c4nc5c([nH]4)CN(S(C)(=O)=O)C5)c2)CCC3)n1 [Compound 9, 2-(4-(2-(6-Methylpyridin-2-yl)-6,7-dihydro-5H-pyrrolo[1,2-a]imidazol-3-yl)pyridin-2-yl)-5-(methylsulfonyl)-1,4,5,6-tetrahydropyrrolo[3,4-d]imidazole] | 5.4 nM
Cc1cccc(-c2nc3n(c2-c2ccnc(-c4nc5c([nH]4)CNC5)c2)CCC3)n1 [Compound 2, 2-(4-(2-(6-methylpyridin-2-yl)-6,7-dihydro-5H-pyrrolo[1,2-a]imidazol-3-yl)pyridin-2-yl)-1,4,5,6-tetrahydropyrrolo[3,4-d]imidazole] | 23 nM
Cc1cccc(-c2nn(Cc3ccccc3)cc2-c2ccnc(-c3nc4c([nH]3)CN(S(C)(=O)=O)C4)c2)n1 [Compound 48, 2-[4-(1-Benzyl-3-(6-methylpyridin-2-yl)-1H-pyrazol-4-yl)pyridin-2-yl]-5-(methylsulfonyl)-1,4,5,6-tetrahydropyrrolo[3,4-d]imidazole] | 1.6 nM
Cc1cccc(-c2nn(C)cc2-c2ccnc(-c3nc4c([nH]3)CN(S(C)(=O)=O)C4)c2)n1 [Compound 39, 2-[4-(1-Methyl-3-(6-methylpyridin-2-yl)-1H-pyrazol-4-yl)pyridin-2-yl]-5-(methylsulfonyl)-1,4,5,6-tetrahydropyrrolo[3,4-d]imidazole] | 2 nM
Cc1cccc(-c2nn3c(c2-c2ccnc(-c4nc5c([nH]4)CN(C(=O)C4CC(O)C4)C5)c2)CCC3)n1 (stereo not shown) [Compound 65, (3-Hydroxycyclobutyl)(2-(4-(2-(6-methylpyridin-2-yl)-5,6-dihydro-4H-pyrrolo[1,2-b]pyrazol-3-yl)pyridin-2-yl)-4,6-dihydropyrrolo[3,4-d]imidazol-5(1H)-yl)ketone] | 0.7 nM
Cc1cccc(-c2nn(C)cc2-c2ccnc(-c3nc4c([nH]3)CN(C(=O)C3CC(O)C3)C4)c2)n1 (stereo not shown) [Compound 42, (3-Hydroxycyclobutyl)(2-(4-(1-methyl-3-(6-methylpyridin-2-yl)-1H-pyrazol-4-yl)pyridin-2-yl)-4,6-dihydropyrrolo[3,4-d]imidazol-5(1H)-yl)ketone] | 27 nM
Cc1cccc(-c2nc3n(c2-c2ccnc(-c4nc5c([nH]4)CN(C(=O)CC#N)C5)c2)CCC3)n1 [Compound 64, 3-(2-(4-(2-(6-Methylpyridin-2-yl)-6,7-dihydro-5H-pyrrolo[1,2-a]imidazol-3-yl)pyridin-2-yl)-4,6-dihydropyrrolo[3,4-d]imidazol-5(1H)-yl)-3-oxopropanenitrile] | 7.3 nM
Cc1cccc(-c2nn3c(c2-c2ccnc(-c4nc5c([nH]4)CN(S(C)(=O)=O)C5)c2)CCC3)n1 [Compound 66, 2-(4-(2-(6-Methylpyridin-2-yl)-5,6-dihydro-4H-pyrrolo[1,2-b]pyrazol-3-yl)pyridin-2-yl)-5-(methylsulfonyl)-1,4,5,6-tetrahydropyrrolo[3,4-d]imidazole] | 4 nM

More lines, now with the values ahead:

IC50 | SMILES
1.7 nM | CCN(C)C(=O)N1Cc2nc(-c3cc(-c4c(-c5cccc(C)n5)nn5c4CCC5)ccn3)[nH]c2C1 [Compound 74, N-Ethyl-N-methyl-2-(4-(2-(6-methylpyridin-2-yl)-5,6-dihydro-4H-pyrrolo[1,2-b]pyrazol-3-yl)pyridin-2-yl)-4,6-dihydropyrrolo[3,4-d]imidazole-5(1H)-carboxamide]
4.1 nM | Cc1cccc(-c2nc3n(c2-c2ccnc(-c4nc5c([nH]4)CN(CC4CC(O)C4)C5)c2)CCC3)n1 (stereo not shown) [Compound 26, 3-((2-(4-(2-(6-Methylpyridin-2-yl)-6,7-dihydro-5H-pyrrolo[1,2-a]imidazol-3-yl)pyridin-2-yl)-4,6-dihydropyrrolo[3,4-d]imidazol-5(1H)-yl)methyl)cyclobutanol]
11.9 nM | Cc1cccc(-c2nc3n(c2-c2ccnc(-c4nc5c([nH]4)CN(C4CCN(C)CC4)C5)c2)CCC3)n1 [Compound 13, 5-(1-Methylpiperidin-4-yl)-2-(4-(2-(6-methylpyridin-2-yl)-6,7-dihydro-5H-pyrrolo[1,2-a]imidazol-3-yl)pyridin-2-yl)-1,4,5,6-tetrahydropyrrolo[3,4-d]imidazole]
1.8 nM | CCn1cc(-c2ccnc(-c3nc4c([nH]3)CN(C(=O)N(C)C)C4)c2)c(-c2cccc(C)n2)n1 [Compound 60, 2-(4-(1-Ethyl-3-(6-methylpyridin-2-yl)-1H-pyrazol-4-yl)pyridin-2-yl)-N,N-dimethyl-4,6-dihydropyrrolo[3,4-d]imidazol-5(1H)-carboxamide]
3 nM | Cc1cccc(-c2nn(CC3CC(O)C3)cc2-c2ccnc(-c3nc4c([nH]3)CN(S(C)(=O)=O)C4)c2)n1 (stereo not shown) [Compound 49, 3-((3-(6-Methylpyridin-2-yl)-4-(2-(5-(methylsulfonyl)-1,4,5,6-tetrahydropyrrolo[3,4-d]imidazol-2-yl)pyridin-4-yl)-1H-pyrazol-1-yl)methyl)cyclobutanol]
7.9 nM | Cc1cccc(-c2nc3n(c2-c2ccnc(-c4nc5c([nH]4)CN(C(=O)N4CCOCC4)C5)c2)CCC3)n1 [Compound 14]
2.5 nM | Cc1cccc(-c2nn(Cc3ccccn3)cc2-c2ccnc(-c3nc4c([nH]3)CN(S(C)(=O)=O)C4)c2)n1 [Compound 53, 2-[4-(3-(6-Methylpyridin-2-yl)-1-(pyridin-2-ylmethyl)-1H-pyrazol-4-yl)pyridin-2-yl]-5-(methylsulfonyl)-1,4,5,6-tetrahydropyrrolo[3,4-d]imidazole]
2.8 nM | Cc1cccc(-c2nn3c(c2-c2ccnc(-c4nc5c([nH]4)CN(C(=O)C4CCN(C)CC4)C5)c2)CCC3)n1 [Compound 73, (1-Methylpiperidin-4-yl)(2-(4-(2-(6-methylpyridin-2-yl)-5,6-dihydro-4H-pyrrolo[1,2-b]pyrazol-3-yl)pyridin-2-yl)-4,6-dihydropyrrolo[3,4-d]imidazol-5(1H)-yl)ketone]
1.3 nM | Cc1cccc(-c2nn3c(c2-c2ccnc(-c4nc5c([nH]4)CN(S(=O)(=O)C(C)C)C5)c2)CCC3)n1 [Compound 69, 5-(Isopropylsulfonyl)-2-(4-(2-(6-methylpyridin-2-yl)-5,6-dihydro-4H-pyrrolo[1,2-b]pyrazol-3-yl)pyridin-2-yl)-1,4,5,6-tetrahydropyrrolo[3,4-d]imidazole]
